From PubChem BioAssay AID1745844 (Carcinogenic Potency Database (CPDB), 2022)
Values joined by “and” are separate entries in the source; they are usually repeats but may differ in a detail not shown here. Equal entries are not always repeated. Active and inactive are the calls of the source. The rule behind the calls is not given here.

Tested on: rodent lifetime carcinogenesis bioassay, tumor incidence TD50
Experiment: carcinogenic potency in animals, long-term in vivo studies, CPDB compilation (AID 1745844)

COc1ccc(OC)c(/C=C/c2ccc(N)cc2)c1
0.269 mg/kg/day: TD50 (rat, strain Charles River CD (Sprague-Dawley), males, in feed, site: any site (literature study), lesion: several types, types named in the paper, dosed 47 weeks, study length 51 weeks)
126 mg/kg/day: TD50 (mouse, strain CD-1 HaM/ICR, males, in feed, site: any site (literature study), lesion: several types, types named in the paper, dosed 77 weeks, study length 90 weeks)
2.61 mg/kg/day: TD50 (rat, strain Charles River CD (Sprague-Dawley), males, in feed, site: liver, lesion: several types, types named in the paper, dosed 47 weeks, study length 51 weeks)
inactive: TD50 (mouse, strain CD-1 HaM/ICR, females, in feed, site: any site (literature study), lesion: several types, types named in the paper, dosed 77 weeks, study length 90 weeks) 118 mg/kg/day | carcinogen call (mouse, strain CD-1 HaM/ICR, females, in feed, site: liver, lesion: several types, types named in the paper, dosed 77 weeks, study length 90 weeks) negative | TD50 (mouse, strain CD-1 HaM/ICR, females, in feed, site: lung, lesion: several types, types named in the paper, dosed 77 weeks, study length 90 weeks) 152 mg/kg/day
329 mg/kg/day: TD50 (mouse, strain CD-1 HaM/ICR, males, in feed, site: liver, lesion: several types, types named in the paper, dosed 77 weeks, study length 90 weeks)
active: TD50 (mouse, strain CD-1 HaM/ICR, males, in feed, site: liver, lesion: hepatoma, dosed 77 weeks, study length 90 weeks) 376 mg/kg/day | TD50 (mouse, strain CD-1 HaM/ICR, males, in feed, site: lung, lesion: several types, types named in the paper, dosed 77 weeks, study length 90 weeks) 95.9 mg/kg/day and 115 mg/kg/day | TD50 (rat, strain Charles River CD (Sprague-Dawley), males, in feed, site: ear, lesion: several types, types named in the paper, dosed 47 weeks, study length 51 weeks) 1.45 mg/kg/day and 1.54 mg/kg/day | TD50 (rat, strain Charles River CD (Sprague-Dawley), males, in feed, site: skin, lesion: several types, types named in the paper, dosed 47 weeks, study length 51 weeks) 1.48 mg/kg/day | TD50 (rat, strain Charles River CD (Sprague-Dawley), males, in feed, site: small intestine, lesion: several types, types named in the paper, dosed 47 weeks, study length 51 weeks) 0.866 mg/kg/day | TD50 (rat, strain Charles River CD (Sprague-Dawley), males, in feed, site: stomach, lesion: several types, types named in the paper, dosed 47 weeks, study length 51 weeks) 0.721 mg/kg/day

Cl
79500 mg/kg/day: TD50 (rat, strain Wistar-random, females, in feed, site: urinary bladder, lesion: transitional-cell papilloma, dosed 130 weeks, study length 130 weeks)
inactive: TD50 (rat, strain Fischer 344, males, in feed, site: adrenal medulla, lesion: pheochromocytoma, dosed 104 weeks, study length 104 weeks) 6210 mg/kg/day | TD50 (rat, strain Fischer 344, males, in feed, site: mammary gland, lesion: fibroadenoma, dosed 104 weeks, study length 104 weeks) 33500 mg/kg/day | carcinogen call (rat, strain Sprague-Dawley, males, inhaled, site: liver, lesion: hepatocellular carcinoma, dosed 128 weeks, study length 128 weeks) negative | carcinogen call (rat, strain Sprague-Dawley, males, inhaled, site: nasal mucosa, lesion: one or several types, types not named, dosed 128 weeks, study length 128 weeks) negative

O=NN1CN2CN(C1)CN(N=O)C2
inactive: carcinogen call (rat, strain CB, males, i.p., site: liver, lesion: hepatoma, dosed 26 weeks, study length 100 weeks) negative

ClCOCCl
inactive: carcinogen call (mouse, strain Ha/ICR, males, inhaled, site: liver, lesion: hepatocellular carcinoma, dosed 26 weeks, study length 108 weeks) negative | carcinogen call (mouse, strain Ha/ICR, males, inhaled, site: liver, lesion: several types, types named in the paper, dosed 26 weeks, study length 108 weeks) negative | carcinogen call (rat, strain Sprague-Dawley Spartan, males, inhaled, site: liver, lesion: hepatocellular tumor, benign, dosed 26 weeks, study length 121 weeks) negative
0.00234 mg/kg/day: TD50 (rat, strain Sprague-Dawley Spartan, males, inhaled, site: any site (literature study), lesion: several types, types named in the paper, dosed 26 weeks, study length 121 weeks)
active: TD50 (mouse, strain Ha/ICR, females, i.p., site: abdomen, lesion: sarcoma, dosed 60 weeks, study length 60 weeks) 0.182 mg/kg/day | TD50 (mouse, strain Ha/ICR, males, inhaled, site: lung, lesion: adenoma, dosed 26 weeks, study length 108 weeks) 1.26 mg/kg/day | TD50 (mouse, strain Ha/ICR, males, inhaled, site: lung, lesion: several types, types named in the paper, dosed 26 weeks, study length 108 weeks) 1.16 mg/kg/day | TD50 (rat, strain Sprague-Dawley Spartan, males, inhaled, site: lung, lesion: adenoma, dosed 26 weeks, study length 121 weeks) 0.196 mg/kg/day | TD50 (rat, strain Sprague-Dawley Spartan, males, inhaled, site: nasal passageway, lesion: carcinoma, dosed 26 weeks, study length 121 weeks) 0.795 mg/kg/day | TD50 (rat, strain Sprague-Dawley Spartan, males, inhaled, site: nasal passageway, lesion: esthesioneuroepithelioma, dosed 26 weeks, study length 121 weeks) 0.00357 mg/kg/day

CC(C)(Oc1ccc(C2CC2(Cl)Cl)cc1)C(=O)O (configuration not stated)
inactive: carcinogen call (rat, strain Fischer 344, males, in feed, site: testis, lesion: Leydig-cell tumor, dosed 95 weeks, study length 95 weeks) negative
active: TD50 (mouse, strain C57BL/6N, males, in feed, site: liver, lesion: hepatocellular adenoma, dosed 78 weeks, study length 78 weeks) 5.89 mg/kg/day | TD50 (mouse, strain C57BL/6N, males, in feed, site: liver, lesion: hepatocellular adenoma, dosed 89 weeks, study length 91 weeks) 19.2 mg/kg/day | TD50 (mouse, strain C57BL/6N, males, in feed, site: liver, lesion: hepatocellular carcinoma, dosed 78 weeks, study length 78 weeks) 12.3 mg/kg/day | TD50 (mouse, strain C57BL/6N, males, in feed, site: liver, lesion: hepatocellular carcinoma, dosed 89 weeks, study length 91 weeks) 46.4 mg/kg/day | TD50 (mouse, strain C57BL/6N, males, in feed, site: liver, lesion: several types, types named in the paper, dosed 78 weeks, study length 78 weeks) 4.17 mg/kg/day | TD50 (mouse, strain C57BL/6N, males, in feed, site: liver, lesion: several types, types named in the paper, dosed 89 weeks, study length 91 weeks) 12.1 mg/kg/day | TD50 (rat, strain Fischer 344, females, in feed, site: stomach, glandular, lesion: carcinoid tumor, malignant, dosed 104 weeks, study length 104 weeks) 531 mg/kg/day | carcinogen call (rat, strain Fischer 344, males, in feed, site: liver, lesion: hepatocellular carcinoma, dosed 60 weeks, study length 60 weeks) positive | carcinogen call (rat, strain Fischer 344, males, in feed, site: liver, lesion: neoplastic nodule, dosed 60 weeks, study length 60 weeks) positive | carcinogen call (rat, strain Fischer 344, males, in feed, site: liver, lesion: several types, types named in the paper, dosed 60 weeks, study length 60 weeks) positive | carcinogen call (rat, strain Fischer 344, males, in feed, site: liver, lesion: several types, types named in the paper, dosed 95 weeks, study length 95 weeks) positive | TD50 (rat, strain Fischer 344, males, in feed, site: stomach, glandular, lesion: carcinoid tumor, malignant, dosed 104 weeks, study length 104 weeks) 103 mg/kg/day
